In patent publication EP4782453A1 (Beyang Therapeutics Co., Ltd., priority 2023, dated 2025):
Where two headings read alike, the source gives them in different places.

Key:
Menin-MLL = target: T1, Menin-MLL (Homo sapiens, UniProt O00255); test: Inhibitory activity against Menin-MLL binding (fluorescence polarization); conditions: 150 nM His-Menin, 15 nM FITC-MLL, 25°C for 60 min
T1 construct: His-Menin (M1-L615 end); purchased BIORTUS BP9210
T1 sequence (O00255 1-615 isoform O00255-1): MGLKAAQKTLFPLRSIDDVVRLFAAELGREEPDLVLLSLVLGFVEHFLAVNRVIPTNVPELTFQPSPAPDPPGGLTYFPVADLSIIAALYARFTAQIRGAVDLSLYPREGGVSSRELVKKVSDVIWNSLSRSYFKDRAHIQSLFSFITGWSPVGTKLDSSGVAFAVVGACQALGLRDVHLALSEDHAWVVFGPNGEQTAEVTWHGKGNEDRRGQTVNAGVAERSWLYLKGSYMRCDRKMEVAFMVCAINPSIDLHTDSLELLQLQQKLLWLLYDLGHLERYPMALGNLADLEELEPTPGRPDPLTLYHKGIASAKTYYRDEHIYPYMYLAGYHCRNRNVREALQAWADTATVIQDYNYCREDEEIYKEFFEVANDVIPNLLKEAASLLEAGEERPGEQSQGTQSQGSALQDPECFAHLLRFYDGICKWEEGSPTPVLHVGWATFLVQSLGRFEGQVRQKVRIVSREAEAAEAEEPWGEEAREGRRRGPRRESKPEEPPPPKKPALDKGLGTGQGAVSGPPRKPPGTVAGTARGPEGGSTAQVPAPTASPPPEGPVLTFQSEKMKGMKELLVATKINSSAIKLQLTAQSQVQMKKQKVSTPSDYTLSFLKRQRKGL
In short: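 Fluorescence polarization competition: compound and 150 nM His-tagged menin (residues M1-L615) sit 15 min at 25 °C in pH 7.5 HEPES buffer with NaCl, DTT and BSA; 15 nM FITC-labelled MLL peptide then binds for 60 min. IC50 fitted sigmoidally from mP values, duplicate wells.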

[1] = test system: MOLM-13 (carrying MLL-AF9); test: Inhibition of proliferation of human tumor cells (Alamar Blue, 7 days), MOLM-13; type: cell-based; conditions: Homo sapiens, MOLM-13 cells (carrying MLL-AF9), method calls the value GI50
In short: (§1)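 Suspension cells were plated, dosed the same day with a graded compound series, and incubated seven days at 37°C under 5% CO2. Growth was then measured by Alamar Blue fluorescence, and the concentration halving proliferation (GI50) was calculated relative to Day 0 and Day 7 vehicle controls.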

[2] = test system: MV-4-11 (carrying MLL-AF4); test: Inhibition of proliferation of human tumor cells (Alamar Blue, 7 days), MV-4-11; type: cell-based; conditions: Homo sapiens, MV4-11, 168 h, MV-4-11 cells (carrying MLL-AF4), method calls the value GI50
In short: as §1

KG-1a (wild-type MLL) = test: Inhibition of proliferation of human tumor cells (Alamar Blue, 7 days), KG-1a control cell line; type: cell-based; conditions: 168 h, KG-1a cells (wild-type MLL, control cell line), method calls the value GI50
Source text: Experimental Example 2: Evaluation of Inhibitory Activity of Compounds Against Proliferation of Human Tumor Cells
• Human acute lymphoblastic leukemia cells MV-4-11, purchased from American Type Culture Collection, Catalog Number: CRL-9591; • Human acute myeloid leukemia cells MOLM-13, purchased from COBIOER BIOSCIENCES CO., LTD, Catalog Number: CBP60678; • Human acute myeloid leukemia cells KG-1a, purchased from American Type Culture Collection, Catalog Number: CCL-246.1; • Inverted Microscope, purchased from Olympus Tokyo; • Countess™ Automated Cell Counter, purchased from Invitrogen, Model: C10281; and • Multilabel Reader, purchased from Bio-Tek, Model: Synergy HT.
MV-4-11 cells were cultured in an IMDM medium containing 10% fetal bovine serum, KG-a cells were cultured in an IMDM medium containing 20% fetal bovine serum, or MOLM-13 cells were cultured in an RPMI-1640 medium containing 20% fetal bovine serum, each supplemented with 100 U·mL^-1 penicillin and 100 µg·mL^-1 streptomycin. These cells were cultured at 37°C with 5% CO2. The suspensions of individual cell lines were prepared in their respective media and seeded into 96-well plates at a density of 4,000 cells/well for MV-4-11 and MOLM-13 cells, or 3,000 cells/well for KG-1a cells. On the day of the experiment, a compound stock solution was diluted in a 3-fold or 4-fold gradient using DMSO. Each gradient-diluted stock solution was then further diluted 250-fold with a complete medium to prepare a series of working solutions at different concentrations. Subsequently, 100 µL of working solution (containing a 2-fold concentration series of the test compound) was added to each well, with duplicate wells set up for each concentration.
Seven days after compound addition (on Day 7), an Alamar Blue assay reagent (MCE, HY-111391 / CS-0040317) was added to measure the fluorescence intensity in each well. Wells containing the cells in the growth medium supplemented with 0.1% DMSO (Day 7) served as high-read control wells. The readouts from the wells containing the cells in the growth medium supplemented with 0.1% DMSO on the day of compound addition (Day 0) served as low-reading control well. GraphPad Prism software was used to calculate the concentration required to inhibit 50% of cell proliferation (GI50), which serves as a cell proliferation inhibition activity index.

[3] = Menin-MLL IC50, fluorescence polarization
[4] = fluorescence polarization, read-out: Menin-MLL IC50

IC50 [2] | IC50 (KG-1a (wild-type MLL)) | IC50 (Menin-MLL; [4]) | IC50 ([1]; 168 h) | SMILES | IC50 (Menin-MLL; [3]) | IC50 ([1]; MOLM-13, 168 h)
7.9 nM | 11000 nM | 11.7 nM | 39 nM | COCC1CN(CCC[C@H](C(C)C)N2CC(c3cc(-c4ccc(F)cc4C(=O)N4CCOC[C@H]4C)c4cnn(C)c4c3)C2)C1 [Example 183-2] |  | 
3.5 nM | 20000 nM | 3.5 nM | 15 nM | Cc1cncc2c(-c3ccc(F)cc3C(=O)N(CC(F)F)C(C)C)cc(CC3CN(CC4CCOCC4)C3)n12 [Example 206, N-(2,2-difluoroethyl)-5-fluoro-2-[4-methyl-6-({1-[(oxacyclohexan-4-yl)methyl]azacyclobutan-3-yl}methyl)pyrrolo[1,2-a]pyrazin-8-yl]-N-(isopropyl)benzamide] |  | 
5.3 nM | 20000 nM | 7 nM | 13 nM | Cc1nc(F)c2c(-c3ccc(F)cc3C(=O)N3CCOC[C@H]3C)cc(C3CN([C@@H](C)C4CCN(C(=O)CC#N)CC4)C3)cn12 [Example 263-2] |  | 
4.6 nM | 20000 nM | 3.5 nM | 19 nM | Cc1cncc2c(-c3ccc(F)cc3C(=O)N3CCOC[C@H]3C)cc(CC3CN(CC4CCN(C(=O)C5CC5)CC4)C3)n12 [Example 286, (3R)-4-{2-[6-({1-[(1-cyclopropanecarbonylpiperidin-4-yl)methyl]azacyclobutan-3-yl}methyl)-4-methylpyrrolo[1,2-a]pyrazin-8-yl]-5-fluorobenzoyl}-3-methylmorpholine] |  | 
9 nM | 20000 nM | 6 nM | 48 nM | CCC(=O)N1CCC(CN2CC(Cc3cc(-c4ccc(F)cc4C(=O)N4CCOC[C@H]4C)c4cncc(C)n34)C2)CC1 [Example 287] |  | 
11 nM | 20000 nM | 10 nM | 45 nM | CCN(C(=O)c1cc(F)ccc1-c1cc(C2CN(CC3CCN(C(C)=O)CC3)C2)cn2c(C)ncc12)C(C)C [Example 289, 2-(6-{1-[(1-acetylpiperidin-4-yl)methyl]azacyclobutan-3-yl}-3-methylimidazo[1,5-a]pyridin-8-yl)-N-ethyl-5-fluoro-N-(isopropyl)benzamide] |  | 

Continued, compound first:

SMILES | IC50 [2] | IC50 (KG-1a (wild-type MLL)) | IC50 (Menin-MLL; [4]) | IC50 ([1]; 168 h) | IC50 (Menin-MLL; [3]) | IC50 ([1]; MOLM-13, 168 h)
CCS(=O)(=O)N[C@H]1CC[C@H](CN2CC(c3cc(-c4ccc(F)cc4C(=O)N4CCOC[C@H]4C)c4c(F)nc(C)n4c3)C2)CC1 [Example 145, N-[(1r,4r)-4-{[3-(1-fluoro-8-{4-fluoro-2-[(3R)-3-methylmorpholin-4-carbonyl]phenyl}-3-methylimidazo[1,5-a]pyridin-6-yl)azacyclobutan-1-yl]methyl}cyclohexyl]ethan-1-sulfonamide] | 13 nM | 19000 nM |  |  | 18 nM | 29.5 nM
COCCN(C)CCCC(C(C)C)N1CC(c2cc(-c3ccc(F)cc3C(=O)N(CC(F)F)C(C)C)c3cnc(C)n3c2)C1 (stereo not shown) [Example 149] | 2.1 nM | 5300 nM | 8.5 nM | 8.3 nM |  | 
COCCN(C)CCCC(C(C)C)N1CC(c2cc(-c3ccc(F)cc3C(=O)N3CCOC[C@H]3C)c3cnn(C)c3c2)C1 (stereo partly shown) [Example 162] | 27 nM | 7000 nM | 24 nM | 67 nM |  | 
CCS(=O)(=O)N[C@H]1CC[C@H](CN2CC(c3cc(-c4ccc(F)cc4C(=O)N4[C@H](C)COC[C@H]4C)c4cnn(C)c4c3)C2)CC1 [Example 168] | 32 nM | 20000 nM |  |  | 32.5 nM | 104 nM
COCC1CN(CCC[C@H](C(C)C)N2CC(c3cc(-c4ccc(F)cc4C(=O)N4CCOC[C@H]4C)c4c(F)nc(C)n4c3)C2)C1 [Example 203] | 2.1 nM | 20000 nM | 3.3 nM | 5.6 nM |  | 
Cc1nc(F)c2c(-c3ccc(F)cc3C(=O)N3CCOC[C@H]3C)cc(C3CN([C@H](CC[C@H]4CNCCO4)C(C)C)C3)cn12 [Example 244-1, (3R)-4-[5-fluoro-2-(1-fluoro-3-methyl-6-{1-[(3R)-4-methyl-1-[(2S)-morpholin-2-yl]pentan-3-yl]azacyclobutan-3-yl}imidazo[1,5-a]pyridin-8yl)benzoyl]-3-methylmorpholine] | 16 nM | 20000 nM | 9.5 nM | 39 nM |  | 
Cc1nc(F)c2c(-c3ccc(F)cc3C(=O)N3CCOC[C@H]3C)cc(C3CN([C@H](CC[C@@H]4CNCCO4)C(C)C)C3)cn12 [Example 245-1, (3R)-4-[5-fluoro-2-(1-fluoro-3-methyl-6-{1-[(3R)-4-methyl-1-[(2R)-morpholin-2-yl]pentan-3-yl]azacyclobutan-3-yl}imidazo[1,5-a]pyridin-8yl)benzoyl]-3-methylmorpholine] | 6.6 nM | 20000 nM | 8.5 nM | 40 nM |  | 
